Results taken from patent US20220025061A1, “COMBINATION THERAPIES FOR TREATING DISEASE USING AN INNATE IMMUNITY MODIFIER AND AN OX40 AGONIST” (BioXcel Therapeutics, Inc., priority 2018, published 2022).

Assays:
[1] = system: MC38 cells; assay: MC38 mouse model of colon adenocarcinoma: tumor volume and survival; assay type: in vivo; conditions: MC38 tumor-bearing C57BL/6 mice
Experimental: Animals: Six to ten week-old female C57BL/6 mice were used in the studies as supplied by Beijing Vital River Laboratory Animal Technology Co., Ltd. Mice received food and water ad libitum. All animals were maintained in a controlled environment with 20-26° C. temperature, 40-70% humidity, and a light/dark cycle of 12 hours each. Up to 5 mice were kept in each cage. The study protocol and procedures involving the care and use of animals were reviewed and approved by the Institutional Animal Care and Use Committee (IACUC) to ensure compliance with the regulations of the Association for Assessment and Accreditation of Laboratory Animal Care (AAALAC).
Reagents and Antibodies: Anti-mouse PD-1 antibody (BioXcell; Lot No./Cat. No./clone: 665418F1/BP0146/RMP1-14) was supplied at a concentration of 7.83 mg/mL and maintained at 4° C. […]
Tumor volumes were measured on Day 10, Day 14, Day 17, Day 21, Day 23, Day 25, Day 28, Day 30, Day 32, Day 35, Day 37, Day 39, Day 42, Day 44, Day 46, Day 49 and Day 51 in two dimensions using a caliper, and the volume was expressed in mm^3 using the formula: V=0.5 a×b^2 where a and b are the length and width of the tumor, respectively.
Statistical Analysis: Data related to tumor volume are presented as mean and the standard error of the mean (SEM). […] Percentage tumor reduction was assessed on Day 23 by using the below formula: […]

[2] = system: pro-inflammatory cytokines and chemokines, including IL-18; assay: Cytokines and chemokines in the serum of treated animals; assay type: in vivo, mice; conditions: serum of animals treated with talabostat mesylate alone; data not shown
Experimental: Various cytokines and chemokines in the serum of animals treated with talabostat mesylate alone was also evaluated. […] IL-18 bridges the innate and adaptive immune systems through induction of IFNγ and OX40 (CD134) signaling pathway (Maxwell et al., Journal of Immunology, 2006, 177:234).

talabostat mesylate
median survival ([1]; same dosing as Table 4, vehicle control median survival 30 days): 35 days
% Tumor Reduction compared to vehicle control on Day 23 ([1]; talabostat mesylate 20 μg/mouse p.o. QD, anti-OX40 Ab 10 mg/kg i.p. twice weekly, anti-PD-1 Ab 5 mg/kg i.p. twice weekly, treatment from Day 11, Day 23): 8.16%
pro-inflammatory cytokines and chemokines in serum, including IL-18 [2]: stimulated
